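Test compounds were applied to cells in 96-well plates for 48 hours at 5 doses. At the GI50, growth is halved.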 Activity calls are given as the source filed them. Cut-off read from the data, not from the text of the source: active = GI50 up to about 1.1 µM and inactive = higher.
Experiments:
Assay in all cases: DTP human tumour cell line panel, 48 h
MDA-N = test system: MDA-N
MDA-MB-231 = test system: MDA-MB-231
ACHN = test system: ACHN
HL-60 = test system: HL-60
MOLT-4 = test system: MOLT-4
SF-539 = test system: SF-539
OVCAR-3 = test system: OVCAR-3
HOP-62 = test system: HOP-62
OVCAR-4 = test system: OVCAR-4
UACC-257 = test system: UACC-257
HT-29 = test system: HT-29
HOP-92 = test system: HOP-92
SW-620 = test system: SW-620
M14 = test system: M14
MCF7 = test system: MCF7
RPMI-8226 = test system: RPMI-8226
Malme-3M = test system: Malme-3M
NCI-H23 = test system: NCI-H23
LOX IMVI = test system: LOX IMVI
T47D = test system: T47D
K562 = test system: K562
SF-295 = test system: SF-295
SNB-19 = test system: SNB-19
UACC-62 = test system: UACC-62
786-0 = test system: 786-0
PC-3 = test system: PC-3
TK-10 = test system: TK-10
Hs-578T = test system: Hs-578T
RXF 393 = test system: RXF 393
NCI-H522 = test system: NCI-H522
SN12C = test system: SN12C
A498 = test system: A498
SK-MEL-5 = test system: SK-MEL-5
OVCAR-8 = test system: OVCAR-8
EKVX = test system: EKVX
A549 = test system: A549
UO-31 = test system: UO-31
NCI-H226 = test system: NCI-H226
NCI-H460 = test system: NCI-H460
COLO 205 = test system: COLO 205
BT-549 = test system: BT-549
HCT-116 = test system: HCT-116
SF-268 = test system: SF-268
SK-MEL-2 = test system: SK-MEL-2
DU-145 = test system: DU-145
KM12 = test system: KM12
HCC 2998 = test system: HCC 2998
CAKI-1 = test system: CAKI-1
SK-MEL-28 = test system: SK-MEL-28
CCRF-CEM = test system: CCRF-CEM
IGROV-1 = test system: IGROV-1
NCI/ADR-RES = test system: NCI/ADR-RES
OVCAR-5 = test system: OVCAR-5
U-251 = test system: U-251
SR = test system: SR
MDA-MB-435 = test system: MDA-MB-435
SNB-75 = test system: SNB-75
HCT-15 = test system: HCT-15
SK-OV-3 = test system: SK-OV-3

Measured: GI50

c1ccc2c(c1)c1c3n2-c2cc(on2)C3CCC1 (configuration not stated)
> 100 µM: HCT-15
inactive: MDA-N > 100 µM | MDA-MB-231 > 100 µM | ACHN > 100 µM | HL-60 > 100 µM | MOLT-4 70.1 µM | SF-539 > 100 µM | OVCAR-3 > 100 µM | HOP-62 > 100 µM | OVCAR-4 > 100 µM | UACC-257 > 100 µM | HT-29 > 100 µM | HOP-92 > 100 µM | SW-620 > 100 µM | M14 > 100 µM | MCF7 > 100 µM | RPMI-8226 > 100 µM | Malme-3M > 100 µM | NCI-H23 > 100 µM | LOX IMVI > 100 µM | T47D > 100 µM | K562 > 100 µM | SF-295 > 100 µM | SNB-19 > 100 µM | UACC-62 > 100 µM | 786-0 > 100 µM | PC-3 > 100 µM | TK-10 > 100 µM | Hs-578T > 100 µM | RXF 393 > 100 µM | NCI-H522 > 100 µM | SN12C > 100 µM | A498 > 100 µM | SK-MEL-5 > 100 µM | OVCAR-8 > 100 µM | EKVX > 100 µM | A549 > 100 µM | UO-31 > 100 µM | NCI-H226 > 100 µM | NCI-H460 > 100 µM | COLO 205 98.4 µM | BT-549 > 100 µM | HCT-116 > 100 µM | SF-268 > 100 µM | SK-MEL-2 > 100 µM | DU-145 > 100 µM | KM12 > 100 µM | HCC 2998 > 100 µM | CAKI-1 > 100 µM | SK-MEL-28 > 100 µM | CCRF-CEM 82.6 µM | IGROV-1 > 100 µM | NCI/ADR-RES > 100 µM | OVCAR-5 > 100 µM | U-251 > 100 µM | SR > 100 µM | MDA-MB-435 > 100 µM | SNB-75 > 100 µM | SK-OV-3 > 100 µM

CC1(C)CCCC2OC2CCC(C)(C)C1=O (configuration not stated)
inactive: MDA-N > 100 µM | MDA-MB-231 > 100 µM | ACHN > 100 µM | HL-60 > 100 µM | MOLT-4 > 100 µM | SF-539 > 100 µM | OVCAR-3 > 100 µM | HOP-62 > 100 µM | OVCAR-4 > 100 µM | UACC-257 > 100 µM | HT-29 > 100 µM | HOP-92 > 100 µM | SW-620 > 100 µM | M14 > 100 µM | MCF7 > 100 µM | RPMI-8226 > 100 µM | Malme-3M > 100 µM | NCI-H23 > 100 µM | LOX IMVI > 100 µM | T47D > 100 µM | K562 > 100 µM | SF-295 > 100 µM | SNB-19 > 100 µM | UACC-62 > 100 µM | 786-0 > 100 µM | PC-3 > 100 µM | TK-10 > 100 µM | Hs-578T > 100 µM | RXF 393 > 100 µM | NCI-H522 > 100 µM | SN12C > 100 µM | A498 > 100 µM | SK-MEL-5 > 100 µM | OVCAR-8 > 100 µM | EKVX > 100 µM | A549 > 100 µM | UO-31 > 100 µM | NCI-H226 > 100 µM | NCI-H460 > 100 µM | COLO 205 > 100 µM | BT-549 > 100 µM | HCT-116 > 100 µM | SF-268 > 100 µM | SK-MEL-2 > 100 µM | DU-145 > 100 µM | KM12 > 100 µM | HCC 2998 > 100 µM | CAKI-1 > 100 µM | SK-MEL-28 > 100 µM | CCRF-CEM > 100 µM | IGROV-1 > 100 µM | NCI/ADR-RES > 100 µM | OVCAR-5 > 100 µM | U-251 > 100 µM | SR > 100 µM | MDA-MB-435 > 100 µM | SNB-75 > 100 µM | SK-OV-3 > 100 µM
> 100 µM: HCT-15

CC(C)OC(=O)c1ccc(CCC2=CC(=O)C=CC2=O)cc1
active: HL-60 0.773 µM | CCRF-CEM 0.697 µM
inactive: MDA-N 10.4 µM | MDA-MB-231 8.93 µM | ACHN 7.89 µM | MOLT-4 2.1 µM | SF-539 5.45 µM | OVCAR-3 5.18 µM | HOP-62 20.3 µM | OVCAR-4 14.8 µM | UACC-257 12.1 µM | HT-29 18.1 µM | HOP-92 5.05 µM | SW-620 4.69 µM | M14 15.2 µM | MCF7 15.5 µM | RPMI-8226 2.79 µM | Malme-3M 6.92 µM | NCI-H23 13.2 µM | LOX IMVI 4.1 µM | T47D 2.17 µM | K562 3.04 µM | SF-295 29.4 µM | SNB-19 21.6 µM | UACC-62 14.9 µM | 786-0 4.22 µM | PC-3 12 µM | TK-10 9.73 µM | Hs-578T 13 µM | RXF 393 11.8 µM | NCI-H522 1.9 µM | SN12C 11.3 µM | A498 23 µM | SK-MEL-5 15 µM | OVCAR-8 7.21 µM | EKVX 11.5 µM | A549 25.4 µM | UO-31 4.5 µM | NCI-H226 15.9 µM | NCI-H460 21.8 µM | COLO 205 8.85 µM | BT-549 5.25 µM | HCT-116 11.8 µM | SF-268 13.7 µM | SK-MEL-2 19.1 µM | DU-145 15.2 µM | KM12 12.2 µM | HCC 2998 16.8 µM | CAKI-1 1.98 µM | SK-MEL-28 13.5 µM | IGROV-1 13.9 µM | NCI/ADR-RES 7.78 µM | OVCAR-5 18 µM | U-251 15.6 µM | SR 2.56 µM | MDA-MB-435 17.4 µM | SNB-75 22.5 µM | SK-OV-3 34.8 µM
8.81 µM: HCT-15
